Starred links: 1 amine or outer side, 2 acyl side, 3 side chain; linkers in the order of their positions; H or OH if unused. Positions of bridges follow the written chain, without caps; N, C: chain ends. Non-standard residues stand in square brackets, D forms with d. Residues, ends and D or L forms follow the SMILES beside them. Groups on a side chain read outwards from the residue. ξ: configuration not given here. *: point of attachment. X31 = CCCCCCCCCCCCCCCC(=O)NCCCC[C@H](NC(=O)[C@H](CC(=O)O)CC(=O)CCOCCOCCOCCOCCOCCOCCN*)C(N)=O; Trp(1-CH2COOH) = N[C@@H](Cc1cn(CC(=O)O)c2ccccc12)C(=O)O; X14 = O=C(O)CCCCCCCCCCNC(=O)CCC(=O)NCCCOCCOCCOCCCN*; C18 diacid = O=C(O)CCCCCCCCCCCCCCCCC(=O)*; γGlu = O=C(O)[C@H](CCC(=O)[*:2])N[*:1]; d(cisHyp) = O=C(O)[C@H]1C[C@@H](O)CN1; Hyp = O=C(O)[C@@H]1C[C@@H](O)CN1; NMeNle = CCCC[C@H](NC)C(=O)O; Pip = O=C(O)[C@@H]1CCCCN1; NMeA = CN[C@@H](C)C(=O)O; Pra = C#CC[C@H](N)C(=O)O; Dab = NCC[C@H](N)C(=O)O; Dap = NC[C@H](N)C(=O)O; Ava = NCCCCC(=O)O; ξC = NC(CS)C(=O)O
The molecules below were run against T1, PD-L1 (Homo sapiens, UniProt Q9NZQ7) (assay: PD-1/PD-L1 Homogenous Time-Resolved Fluorescence (HTRF) binding assay (PD-1-Ig/PD-L1-His)). Conditions: inhibition of PD-1-Ig binding to PD-L1-TVMV-His; value given as range class; read-out: HTRF IC50.
T1 construct: hPDL1(19-239)-TVMV-His; made in house; host or cells: HEK293T
T1 sequence (Q9NZQ7 with tags, fused parts or gaps): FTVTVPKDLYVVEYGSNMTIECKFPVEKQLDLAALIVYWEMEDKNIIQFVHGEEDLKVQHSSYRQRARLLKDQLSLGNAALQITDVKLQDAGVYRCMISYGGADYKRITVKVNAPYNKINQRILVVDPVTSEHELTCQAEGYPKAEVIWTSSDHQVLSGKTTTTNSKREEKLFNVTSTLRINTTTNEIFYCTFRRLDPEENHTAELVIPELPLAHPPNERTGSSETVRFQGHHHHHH
In short: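 Inhibitors pre-incubated 15 min with PD-L1-His (10 nM final), then PD-1-Ig (20 nM final) added for 15 min in dPBS/0.1% BSA/0.05% Tween-20. Eu-cryptate anti-Ig (1 nM) and APC anti-His (20 nM) added, 30 min equilibration, 665/620 nm HTRF ratio read.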

SMILES	IC50
CCCC[C@H]1C(=O)N(C)[C@@H](CCCC)C(=O)N[C@@H](CC(C)C)C(=O)N[C@H](C(=O)NCCCOCCOCCOCCCNC(=O)CCC(=O)NCCCCCCCCCCC(=O)O)CSCC(=O)N[C@@H](Cc2ccc(O)cc2)C(=O)N(C)[C@@H](C)C(=O)N[C@@H](CC(N)=O)C(=O)N2CCC[C@H]2C(=O)N[C@@H](Cc2cnc[nH]2)C(=O)N[C@@H](CCC(=O)O)C(=O)N2C[C@H](O)C[C@H]2C(=O)N[C@@H](Cc2c[nH]c3ccccc23)C(=O)N[C@@H](CO)C(=O)N[C@@H](Cc2c[nH]c3ccccc23)C(=O)N1C [Example 11073] ({CH2CO}-Y[NMeA]NPHE[Hyp]WSW[NMeNle][NMeNle]LC-X14; thioether N-14)	10 to 99 nM
CCCC[C@H]1C(=O)N(C)[C@@H](CCCC)C(=O)N[C@@H](CC(C)C)C(=O)N[C@H](C(=O)NCC(=O)NCC(=O)NCC(=O)NCCCCC(=O)O)CSCC(=O)N[C@@H](Cc2ccc(O)cc2)C(=O)N(C)[C@@H](C)C(=O)N[C@@H](CC(N)=O)C(=O)N2CCC[C@H]2C(=O)N[C@@H](CN)C(=O)N[C@@H](CC(C)C)C(=O)N2C[C@H](O)C[C@@H]2C(=O)N[C@@H](Cc2c[nH]c3ccccc23)C(=O)N[C@@H](CCN)C(=O)N[C@@H](Cc2cn(CC(=O)O)c3ccccc23)C(=O)N1C [Example 11137] ({CH2CO}-Y[NMeA]NP[Dap]L[d(cisHyp)]W[Dab][Trp(1-CH2COOH)][NMeNle][NMeNle]LCGGG[Ava]-OH; thioether N-14)	10 to 99 nM
CCCC[C@H]1C(=O)N(C)[C@@H](CCCC)C(=O)N[C@@H](CC(C)C)C(=O)C[C@H](C(=O)NCC(=O)N[C@@H](CCC(=O)O)C(=O)NCCCOCCOCCOCCCNC(=O)CC[C@H](NC(=O)CCCCCCCCCCCCCCC(=O)O)C(=O)O)CSCC(=O)N[C@@H](Cc2ccc(O)cc2)C(=O)N(C)[C@@H](C)C(=O)N[C@@H](CC(N)=O)C(=O)N2CCC[C@H]2C(=O)N[C@@H](CN)C(=O)N[C@@H](CC(C)C)C(=O)N2C[C@H](O)C[C@H]2C(=O)N[C@@H](Cc2c[nH]c3ccccc23)C(=O)N[C@@H](CCN)C(=O)N[C@@H](Cc2cn(CC(=O)O)c3ccccc23)C(=O)N1C [Example 11184]	10 to 99 nM
CCCCCCCCCCCCCCCC(=O)NCCCC[C@H](NC(=O)[C@H](CC(=O)O)CC(=O)CCOCCOCCOCCOCCOCCOCCNC(=O)[C@H](CC(=O)O)NC(=O)CNC(=O)C1CSCC(=O)N[C@@H](Cc2ccc(O)cc2)C(=O)N(C)[C@@H](C)C(=O)N[C@@H](CC(=O)O)C(=O)N2CCC[C@H]2C(=O)N[C@@H](Cc2cnc[nH]2)C(=O)N[C@@H](CC(C)C)C(=O)N2C[C@H](O)C[C@H]2C(=O)N[C@@H](Cc2c[nH]c3ccccc23)C(=O)N[C@@H](CO)C(=O)N[C@@H](Cc2c[nH]c3ccccc23)C(=O)N(C)[C@@H](CCCC)C(=O)N(C)[C@@H](CCCC)C(=O)N[C@@H](CCCNC(=N)N)C(=O)N1)C(N)=O (stereo partly shown) [Example 11018] ({CH2CO}-Y[NMeA]DPHL[Hyp]WSW[NMeNle][NMeNle]R[ξC]GD-X31; thioether N-14)	10 to 99 nM

Results, then the molecule that gave them:

IC50	SMILES
10 to 99 nM	CCCC[C@H]1C(=O)N(C)[C@@H](CCCC)C(=O)N[C@@H](CC(C)C)C(=O)N[C@H](C(=O)NCC(=O)N[C@@H](CCNC(=O)CC[C@H](NC(=O)CCCCCCCCCCCCCCCCC(=O)O)C(=O)O)C(=O)O)CSCC(=O)N[C@@H](Cc2ccc(O)cc2)C(=O)N2CCCC[C@H]2C(=O)N[C@@H](CC(N)=O)C(=O)N2CCC[C@H]2C(=O)N[C@@H](CN)C(=O)N[C@@H](CC(C)C)C(=O)N2C[C@H](O)C[C@H]2C(=O)N[C@@H](Cc2c[nH]c3ccccc23)C(=O)N[C@@H](CCN)C(=O)N[C@@H](Cc2cn(CC(=O)O)c3ccccc23)C(=O)N1C [Example 13149] ({CH2CO}-Y[Pip]NP[Dap]L[Hyp]W[Dab][Trp(1-CH2COOH)][NMeNle][NMeNle]LCG[Dab]([γGlu-C18 diacid])-OH; thioether N-14)
100 to 1600 nM	CCCC[C@H]1C(=O)N(C)[C@@H](CCCC)C(=O)N[C@@H](CC(C)C)C(=O)N[C@H](C(=O)NCC(=O)N[C@@H](Cc2cn(CCOCCOCCOCCOCCOCCOCCOCCOCCOCCOCCOCCNC(=O)CC[C@H](NC(=O)CCCCCCCCCCCCCCCCC(=O)O)C(=O)O)nn2)C(=O)O)CSCC(=O)N[C@@H](Cc2ccc(O)cc2)C(=O)N2CCCC[C@H]2C(=O)N[C@@H](CC(N)=O)C(=O)N2CCC[C@H]2C(=O)N[C@@H](CNC)C(=O)N[C@@H](CC(C)C)C(=O)N2C[C@H](O)C[C@H]2C(=O)N[C@@H](Cc2c[nH]c3ccccc23)C(=O)N[C@@H](CCN)C(=O)N[C@@H](Cc2cn(CC(=O)O)c3ccccc23)C(=O)N1C [Example 14105]
10 to 99 nM	C#CC[C@H](NC(=O)CNC(=O)[C@@H]1CSCC(=O)N[C@@H](Cc2ccc(O)cc2)C(=O)N(C)[C@@H](C)C(=O)N[C@@H](CC(N)=O)C(=O)N2CCC[C@H]2C(=O)N[C@@H](CN)C(=O)N[C@@H](CC(C)C)C(=O)N2C[C@H](O)C[C@H]2C(=O)N[C@@H](Cc2c[nH]c3ccccc23)C(=O)N[C@@H](CCN)C(=O)N[C@@H](Cc2cn(CC(=O)O)c3ccccc23)C(=O)N(C)[C@@H](CCCC)C(=O)N(C)[C@@H](CCCC)C(=O)N[C@@H](CCC(=O)O)C(=O)N1)C(=O)O [INT130AD] ({CH2CO}-Y[NMeA]NP[Dap]L[Hyp]W[Dab][Trp(1-CH2COOH)][NMeNle][NMeNle]ECG[Pra]-OH; thioether N-14)
10 to 99 nM	C#CC[C@H](NC(=O)CNC(=O)[C@@H]1CSCC(=O)N[C@@H](Cc2ccc(O)cc2)C(=O)N(C)[C@@H](C)C(=O)N[C@@H](CC(N)=O)C(=O)N2CCC[C@H]2C(=O)N[C@@H](CN)C(=O)N[C@@H](CC(C)C)C(=O)N2C[C@H](O)C[C@H]2C(=O)N[C@@H](Cc2c[nH]c3ccccc23)C(=O)N[C@@H](CCN)C(=O)N[C@@H](Cc2cn(CC(=O)O)c3ccccc23)C(=O)N(C)[C@@H](CCCC)C(=O)N(C)[C@@H](CCCC)C(=O)N[C@@H](CC(C)C)C(=O)N1)C(=O)O [INT 1300V] ({CH2CO}-Y[NMeA]NP[Dap]L[Hyp]W[Dab][Trp(1-CH2COOH)][NMeNle][NMeNle]LCG[Pra]-OH; thioether N-14)
10 to 99 nM	CCCC[C@H]1C(=O)N(C)[C@@H](CCCC)C(=O)N[C@@H](CCCNC(=N)N)C(=O)N[C@H](C(=O)NCC(=O)N[C@@H](CCn2cc(CNC(=O)COCCOCCOC)nn2)C(N)=O)CSCC(=O)N[C@@H](Cc2ccc(O)cc2)C(=O)N(C)[C@@H](C)C(=O)N[C@@H](CC(N)=O)C(=O)N2CCC[C@H]2C(=O)N[C@@H](CN)C(=O)N[C@@H](CC(C)C)C(=O)N2C[C@H](O)C[C@H]2C(=O)N[C@@H](Cc2c[nH]c3ccccc23)C(=O)N[C@@H](CO)C(=O)N[C@@H](Cc2csc3ccccc23)C(=O)N1C [Example 13052]
10 to 99 nM	CCCC[C@H]1C(=O)N(C)[C@@H](CCCC)C(=O)N[C@@H](CCC(=O)O)C(=O)N[C@H](C(=O)NCC(=O)N[C@@H](Cc2cn(CCOCCOCCOCCOC)nn2)C(=O)NCC(N)=O)CSCC(=O)N[C@@H](Cc2ccc(O)cc2)C(=O)N(C)[C@@H](C)C(=O)N[C@@H](CC(=O)O)C(=O)N2CCC[C@H]2C(=O)N[C@@H](Cc2c[nH]cn2)C(=O)N[C@@H](CCCCN)C(=O)N2C[C@H](O)C[C@H]2C(=O)N[C@@H](Cc2c[nH]c3ccccc23)C(=O)N[C@@H](CCCCN)C(=O)N[C@@H](Cc2c[nH]c3ccccc23)C(=O)N1C [Example 14063]

— patent US10633419B2, “Immunomodulators” (BRISTOL-MYERS SQUIBB COMPANY, priority 2014, dated 2020)
